This is an account of results in publication PMC12775434, “Ultra-large virtual screening unveils potent agonists of the neuromodulatory orphan receptor GPR139” (Nature Communications, 2025).

Common to all, as to format: cell-based
In assay [1] the target is T1, GPR139 (Homo sapiens, UniProt Q6DWJ6).
T1 sequence (Q6DWJ6 1-353): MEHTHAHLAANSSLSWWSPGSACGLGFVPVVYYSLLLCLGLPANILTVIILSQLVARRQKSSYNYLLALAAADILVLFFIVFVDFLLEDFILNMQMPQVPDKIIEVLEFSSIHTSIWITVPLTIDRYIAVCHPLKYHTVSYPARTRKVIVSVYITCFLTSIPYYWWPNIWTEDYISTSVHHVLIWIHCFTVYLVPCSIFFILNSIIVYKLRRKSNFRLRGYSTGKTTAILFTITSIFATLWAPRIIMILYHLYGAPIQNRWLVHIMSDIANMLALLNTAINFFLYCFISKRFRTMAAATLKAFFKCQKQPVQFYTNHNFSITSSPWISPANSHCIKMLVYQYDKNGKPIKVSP
As to the kind of experiment: Ca2+ mobilization assay, antagonist mode (EC80 800 nM Lundbeck Cmp 1a after 20 min preincubation), GPR139-CHOk1. To be noted: individual replicates (Supplementary Figure 4). The procedure, abridged:
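Fluo-4-loaded GPR139-CHOk1 cells in HEPES-buffered HBSS (pH 7.4, 2.5 mM probenecid) given test compounds at 10 µM, then after 20 min challenged with 800 nM Lundbeck Cmp 1a (EC80). Calcium fluorescence read at 37 °C, 485/525 nm.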
On the technique in general: A change in cytosolic calcium serves as a functional read-out for many receptors and channels.

In assay [2] the target is T1, GPR139. As to the kind of experiment: Ca2+ mobilization assay, agonist mode, stable GPR139-CHOk1 cell line. The note with it: for Emax: normalized to Lundbeck Cmp 1a, read-out: Emax (%) Ca2+. A digest of the protocol: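 Agonist activity of compounds is assessed in stably transfected CHO-K1 cells using the calcium dye Fluo-4 at 37 °C in HEPES-buffered HBSS (pH 7.4). Efficacy is expressed relative to the reference agonist Lundbeck Cmp 1a, set as 100%.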

The target in assay [3] is T2, human muscarinic acetylcholine M1 receptor (M1R) (Homo sapiens, UniProt P11229).
T2 sequence (P11229 1-460): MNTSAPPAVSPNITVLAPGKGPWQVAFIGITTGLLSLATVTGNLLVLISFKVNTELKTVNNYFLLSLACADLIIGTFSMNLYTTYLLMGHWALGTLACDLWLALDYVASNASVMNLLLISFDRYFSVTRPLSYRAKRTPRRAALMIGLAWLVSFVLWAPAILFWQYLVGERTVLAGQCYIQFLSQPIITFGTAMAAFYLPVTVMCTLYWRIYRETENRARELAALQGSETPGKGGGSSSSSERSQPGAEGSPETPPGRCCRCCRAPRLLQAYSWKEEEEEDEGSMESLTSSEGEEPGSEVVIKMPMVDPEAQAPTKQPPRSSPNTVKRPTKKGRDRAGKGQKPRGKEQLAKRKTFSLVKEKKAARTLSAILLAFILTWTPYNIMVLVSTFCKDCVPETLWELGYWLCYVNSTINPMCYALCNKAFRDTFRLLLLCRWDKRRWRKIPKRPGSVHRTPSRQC
The assay is described as follows: Ca2+ mobilization counter-screen in M1R-CHOk1 cells. To be noted: individual replicates (Supplementary Figure 5). A digest of the protocol:
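Stable M1R-CHOk1 line; Fluo-4 AM 2 µM, 1 h, 37 °C; HEPES-buffered HBSS pH 7.4 + 1 mM MgCl2/CaCl2 + 2.5 mM probenecid; 10 min equilibration; compound injected post-baseline; ex 485/em 525, 37 °C; DMSO ≤0.3%.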

The mark [4] stands for this setting: Agonist mode, individual replicates (Supplementary Figure 4).
[5] abbreviates: Supplementary Table 2, mean ± SEM.
Setting [6] is: log [Compound] M = -4.5, individual replicate columns.
[7] abbreviates: log [Compound] M = -5.0, individual replicate columns.
The mark [8] stands for this setting: log [Compound] M = -5.5, individual replicate columns.
Setting [9] is: log [Compound] M = -6.0, individual replicate columns.
[10] abbreviates: log [Compound] M = -6.5, individual replicate columns.
The mark [11] stands for this setting: log [Compound] M = -7.0, individual replicate columns.
Setting [12] is: log [Compound] M = -7.5, individual replicate columns.
[13] abbreviates: log [Compound] M = -8.0, individual replicate columns.
The mark [14] stands for this setting: log [Compound] M = -8.5, individual replicate columns.
Setting [15] is: log [Compound] M = -9.0, individual replicate columns.

“And” between values parts separate entries of the source, which are not always exact repeats. Identical values can stand only once. Like-named read-outs stand apart in the source and are kept apart here.

In general, Emax refers to the greatest response seen or fitted, relative to the assay's reference.

As for `Cc1ccc(-c2nc(CC(=O)NC(C)c3ccccc3)no2)nc1C` (stereo not drawn) [Compound 1.31, CC(C1=CC=CC=C1)NC(CC2=NOC(C3=NC(C)=C(C)C=C3)=N2)=O], the “Ca2+ signal (% of Cmp 1a)” value is 38 % of Cmp 1a and 34 % of Cmp 1a and 35 % of Cmp 1a on GPR139 [1]; 66 % of Cmp 1a and 63 % of Cmp 1a and 64 % of Cmp 1a on GPR139 [2] (setting [4]); 86 % of Cmp 1a and 82 % of Cmp 1a and 66 % of Cmp 1a and 84 % of Cmp 1a and 90 % of Cmp 1a on GPR139 [2] (setting [6]); 64 % of Cmp 1a and 55 % of Cmp 1a and 44 % of Cmp 1a and 70 % of Cmp 1a and 87 % of Cmp 1a on GPR139 [2] (setting [7]); 36 % of Cmp 1a and 30 % of Cmp 1a and 18 % of Cmp 1a and 73 % of Cmp 1a and 76 % of Cmp 1a at GPR139 [2] (setting [8]); 7 % of Cmp 1a and 7.42 % of Cmp 1a and 11 % of Cmp 1a and 39 % of Cmp 1a and 38 % of Cmp 1a on GPR139 [2] (setting [9]). Besides, the “Ca2+ signal (% of Cmp 1a)” value at GPR139 [2] (setting [10]) was 11 % of Cmp 1a and -0.0559 % of Cmp 1a and -2.48 % of Cmp 1a and 12 % of Cmp 1a and 13 % of Cmp 1a; at GPR139 [2] (setting [11]), -0.363 % of Cmp 1a and -3.44 % of Cmp 1a and 5.45 % of Cmp 1a and 7 % of Cmp 1a and 2.52 % of Cmp 1a; at GPR139 [2] (setting [12]), -1.4 % of Cmp 1a and 1.28 % of Cmp 1a and 5 % of Cmp 1a and 4.53 % of Cmp 1a and 3 % of Cmp 1a; at GPR139 [2] (setting [13]), 2 % of Cmp 1a and 3.59 % of Cmp 1a and 6 % of Cmp 1a and 2.52 % of Cmp 1a and -0.475 % of Cmp 1a; on GPR139 [2] (setting [14]), 1.45 % of Cmp 1a and 1.69 % of Cmp 1a and 3 % of Cmp 1a and 2.45 % of Cmp 1a and -0.45 % of Cmp 1a; on GPR139 [2] (setting [15]) it was 1.77 % of Cmp 1a and -0.256 % of Cmp 1a and 3.41 % of Cmp 1a and 8 % of Cmp 1a and 5 % of Cmp 1a. For the same compound, the EC50 on GPR139 [2] (Supplementary Table 2, mean ± SEM, read-out: pEC50 Ca2+ (converted)) is 3160 nM. The Emax on GPR139 [2] (setting [5]) turned out to be 86 ± 5%. The “Ca2+ signal (% of Carbachol)” value in assay [3] was -8 % of Carbachol and 0.74 % of Carbachol and -0.0562 % of Carbachol.

As for `CC(NC(=O)Cc1noc(-c2cccs2)n1)c1ccccc1` (stereo not drawn) [Compound 1.8, CC(C1=CC=CC=C1)NC(CC2=NOC(C3=CC=CS3)=N2)=O], the “Ca2+ signal (% of Cmp 1a)” value at GPR139 [1] was -5.67 % of Cmp 1a and 1.33 % of Cmp 1a and -13 % of Cmp 1a; at GPR139 [2] (setting [4]), 85 % of Cmp 1a and 73 % of Cmp 1a and 70 % of Cmp 1a; at GPR139 [2] (setting [6]), 109 % of Cmp 1a and 116 % of Cmp 1a and 101 % of Cmp 1a; at GPR139 [2] (setting [7]) it was 111 % of Cmp 1a and 105 % of Cmp 1a and 96 % of Cmp 1a; at GPR139 [2] (setting [8]) it was 93 % of Cmp 1a and 94 % of Cmp 1a and 84 % of Cmp 1a; on GPR139 [2] (setting [9]) it was 85 % of Cmp 1a and 82 % of Cmp 1a and 75 % of Cmp 1a. The “Ca2+ signal (% of Cmp 1a)” value at GPR139 [2] (setting [10]) was 69 % of Cmp 1a and 70 % of Cmp 1a and 47 % of Cmp 1a; on GPR139 [2] (setting [11]) it was 38 % of Cmp 1a and 47 % of Cmp 1a and 20 % of Cmp 1a; at GPR139 [2] (setting [12]) it was 0.333 % of Cmp 1a and 13 % of Cmp 1a and 7 % of Cmp 1a; on GPR139 [2] (setting [13]), -16 % of Cmp 1a and -13 % of Cmp 1a and 1.67 % of Cmp 1a; at GPR139 [2] (setting [14]) it was -16 % of Cmp 1a and 4.67 % of Cmp 1a and -5.33 % of Cmp 1a; at GPR139 [2] (setting [15]), -11 % of Cmp 1a and -5.67 % of Cmp 1a and -13 % of Cmp 1a. For the same compound, the EC50 at GPR139 [2] (GPR139-CHOk1, read-out: EC50, Ca2+ mobilization) stood at 200 nM. Further, the maximal response (Emax) on GPR139 [2] (setting [5]) came to 107 ± 2%. Also, in assay [3], the “Ca2+ signal (% of Carbachol)” value was 5 % of Carbachol and -12 % of Carbachol and 8 % of Carbachol.
